Source: patent US8710064B2, “2-aryl-4-quinazolinones and their pharmaceutical compositions” (China Medical University, priority 2011, dated 2014)
Read-outs that look alike come from different tables or passages of the source.

Assays:
M21 = experiment: trypan blue exclusion assay, M21 cells; format: cell-based; conditions: Homo sapiens
Description: M21 cell line (human malignant melanoma) was provided by Dr. Feng-Yao Tang (China Medical University, Taiwan). Cells were grown in monolayer culture in RPMI-1640 medium, Eagle's minimum essential medium or Dulbecco's modified Eagles medium (Invitrogen Corporation, Grand Island, N.Y., USA) containing 10% fetal bovine serum (FBS; HyClone, Logan, Utah, USA), 100 U/ml penicillin and 100 μg/ml streptomycin (Gibco BRL, Rockville, Md., USA).
(§1) Cell viability was also determined by trypan-blue exclusion assay. Cells were seeded in 6-well plates (2×10^4/well) for trypan blue exclusion assay, and incubated for 24 hours at 37° C. Culture medium containing test compound or DMSO (0.006%) was added to each well, and cells were incubated at 37° C. At indicated time points (0, 24, 48, 72 and 96 hr), cells were suspended with 0.05% trypsin-EDTA, and stained with trypan-blue dye (0.4%) (Sigma). The cell viability was evaluated by the percentage of death relative to the total cell, and cell growth curve was determined by number of live cells relative to the total number of cells.
(§2) The anti-proliferation effects of Compounds 17-31 on M21, CH27, H460, Hep3B and HSC-3 cells were evaluated by the trypan blue exclusion assay.

CH27 = experiment: trypan blue exclusion assay, CH27 cells; format: cell-based; conditions: CH27 human lung squamous carcinoma
Description: CH27 cells (Human lung squamous carcinoma) were grown in monolayer culture in Dulbecco's modified Eagle's medium (DMEM; Life Technologies, Rockville, Md., USA) containing 5% FBS (HyClone, Logan, Utah, USA), 100 U/ml penicillin, […] streptomycin (Gibco BRL, Rockville, Md., USA) and 2 mM glutamine (Merck, Darmstadt, Germany).
as §1, §2

[1] = test system: glioma cell lines C6, RT2, U87, U251, U373 and T98G; experiment: MTS cell viability assay, glioma cell lines; format: cell-based, rat and human
Description: The human glioma cell lines U87, U251, T98G, U373, and rat glioma cell line RT2 provided by Dr. Michael Hsiao (Genomics Research Center, Academia Sinica, Taiwan) were cultured in Dulbecco's Modified Eagle medium (DMEM) (Caisson) supplemented with 10% fetal bovine serum (FBS) (Sigma-Aldrich), 2 mM L-glutamine (Caisson), 100 U/ml penicillin, and 100 μg/ml streptomycin (Caisson). The rat glioma C6 cell line provided by Dr. Shun-Fen Tzeng (National Cheng Kung University, Taiwan) was cultured in DMEM/F12 (Caisson) supplemented with 10% fetal bovine serum, 2 mM L-glutamine, 100 U/ml penicillin, and 100 μg/ml streptomycin. The human normal glia cell line SVGP12, kindly provided by Dr. Michael Hsiao, was cultured in Minimum Essential Medium (MEM) (Invitrogen) supplemented with 10% fetal bovine serum, 2 mM L-glutamine, 100 U/ml penicillin, and […]. Primary glia cells were prepared by surgery. […]
Cell proliferation was determined by MTS (tetrazolium compound, 3-(4,5-dimethylthiazol-2-yl)-5-(3-carboxymethoxyphenyl)-2-(4-sulfophenyl)-2H-tetrazolium) assay (Promega). […] The absorbance of soluble formazan was measured at 490 nm with microplate reader (Molecular device). The cell viability was determined by the percentage of the absorption relative to untreated control. […]
The effects of MJ-66 on other glioma cell lines were further examined. […] Cell viability was assessed by MTS assay (mean±SEM, n=3). […]

U87 glioma cells = experiment: immunofluorescent staining, confocal microscopy; format: cell-based, human; conditions: 60 nM, 24 hours
Description: 2×10^4 cells were seeded on the PDL-coating 12 mm-glass coverslips in 24-well plate and allowed to attach for 24 hours at 37° C. Culture medium containing MJ-66 (IC50) or DMSO (0.006%) was added, and cells were incubated at 37° C. At indicated time points (0, 12 and 24 hr), cells were fixed in 4% paraformaldehyde (PFA) in PBS for 30 minutes. After permeabilized by 0.2% Triton X-100 in 0.1 M PBS for 10 minutes and 10% methanol containing 0.2% Triton X-100 in 0.1 M PBS for 5 minutes, cells were blocked in 3% bovine serum albumin (BSA, Sigma) for 1 hour. The cells were immunostained for mitotic spindle with mouse monoclonal alpha-tubulin (Sigma-Aldrich), and mitotic center with rabbit polyclonal gamma-tubulin (Genetex), and then stained with appropriated secondary antibodies conjugated with Texas Red or FITC for 1 hr. […] Fluorescence images were detected by confocal laser scanning microscope (FV1000, Olympus).
To observe the morphology of MJ-66-treated glioma cells, C6 or U87 glioma cells were treated with medium or 60 nM MJ-66 for 24 hours and stained with Hoechst 33342 and antibodies against alpha-tubulin conjugated with FITC or antibodies against gamma-tubulin conjugated with FITC in combination with antibodies against alpha-tubulin conjugated with Texas Red were detected by confocal laser scanning microscope. […]

## O=c1[nH]c(-c2cccc3ccccc23)nc2ccc(N3CCCC3)cc12 [Compound 23, 6-(Pyrrolidin-1-yl)-2-(naphthalen-1-yl)quinazolin-4-one]
M21; M21, in vitro, read-out: IC50, growth of human malignant melanoma cells
  IC50: ~33 nM
M21; M21 skin cancer, trypan blue exclusion assay, read-out: IC50 M21
  IC50: 33 nM
CH27
  IC50: 53 nM
[1]; 0.00625-1 μM, 24, 48 and 72 hr, MTS assay
  survival rates of glioma cell lines: decreased in a time- and concentration-dependent manner
[1]; Glioma cell, in vitro, read-out: IC50, growth of glioma cells
  IC50: ~60 nM
U87 glioma cells
  nuclear morphology of U87 glioma cells: abnormal nuclear phenotype
